Experimental data taken from PMC4877642 (2016).

How the values were obtained:
[1] = system: X-Aptamer 5 (DNA, aptamer, dU with phenol (tyrosine) at C5 (Y) at 23; dU with indole (tryptophan) at C5 (W) at 37 and 38) TTTTTTTCTAGCTTCCGTGAAATCAACGTGCCCTGGTTCGTCTAGTTTTT; assay: SPR imaging; details: 10 mM PBS; pH 7.4, 4% acetonitrile, room temperature; tested at 63 µg/mL
[2] = system: X-Aptamer 6 (DNA, aptamer, dU with phenol (tyrosine) at C5 (Y) at 23; dU with indole (tryptophan) at C5 (W) at 37) TTTTTTTCTAGCTTCCGTGAAATCAACGTGCCCTGGTTAGTCTAGTTTTT; assay: SPR imaging, kinetic 1:1 fit; details: 10 mM PBS; pH 7.4, 4% acetonitrile, room temperature; 150 µM progesterone injected in screening
[3] = system: X-Aptamer 9 (DNA, aptamer, dU with phenol (tyrosine) at C5 (Y) at 23; dU with indole (tryptophan) at C5 (W) at 36, 37 and 39) TTTTTTTCTAGCTTCCGTGAAATCAACGTGCCCTGTTATCGCTAGTTTTT; assay: SPR imaging, kinetic 1:1 fit; details: 10 mM PBS; pH 7.4, 4% acetonitrile, room temperature; 150 µM progesterone injected in screening
[4] = system: X-Aptamer 2 (DNA, aptamer, dU with phenol (tyrosine) at C5 (Y) at 18; dU with indole (tryptophan) at C5 (W) at 38) TTTTTTTCTAGCTTCGTTTGTCTCAACGTGCCCTGCGTCGTGATCTTTTT; assay: SPR imaging, kinetic 1:1 fit; details: 10 mM PBS; pH 7.4, 4% acetonitrile, room temperature; 150 µM progesterone injected in screening
[5] = system: X-Aptamer 7 (DNA, aptamer, dU with phenol (tyrosine) at C5 (Y) at 23; dU with indole (tryptophan) at C5 (W) at 36 and 37) TTTTTTTCTAGCTTCCGTGAAATCAACGTGACCTGTTTAGTGATCTTTTT; assay: SPR imaging, kinetic 1:1 fit; details: 10 mM PBS; pH 7.4, 4% acetonitrile, room temperature; 150 µM progesterone injected in screening
[6] = system: X-Aptamer 5 (DNA, aptamer, dU with phenol (tyrosine) at C5 (Y) at 23; dU with indole (tryptophan) at C5 (W) at 37 and 38) TTTTTTTCTAGCTTCCGTGAAATCAACGTGCCCTGGTTCGTCTAGTTTTT; assay: SPR imaging, kinetic 1:1 fit; details: 10 mM PBS; pH 7.4, 4% acetonitrile, room temperature; 150 µM progesterone injected in screening
[7] = system: X-Aptamer 8 (DNA, aptamer, dU with phenol (tyrosine) at C5 (Y) at 23; dU with indole (tryptophan) at C5 (W) at 37, 39 and 41) TTTTTTTCTAGCTTCCGTGAAATCAACGTGCCCTGGTATCTGATCTTTTT; assay: SPR imaging, kinetic 1:1 fit; details: 10 mM PBS; pH 7.4, 4% acetonitrile, room temperature; 150 µM progesterone injected in screening
[8] = system: X-Aptamer 3 (DNA, aptamer, dU with phenol (tyrosine) at C5 (Y) at 18; dU with indole (tryptophan) at C5 (W) at 38) TTTTTTTCTAGAGATGTTTGTCTCAACGTGCCCTGCGTCGTGATCTTTTT; assay: SPR imaging, kinetic 1:1 fit; details: 10 mM PBS; pH 7.4, 4% acetonitrile, room temperature; 150 µM progesterone injected in screening

Compound	binding [1]	KD [2]	KD [3]	KD [4]	KD [5]	KD [6]	KD [7]	KD [8]
C[C@]12CC[C@@H]3c4ccc(O)cc4CC[C@H]3[C@@H]1CC[C@@H]2O	no							
CC(=O)[C@H]1CC[C@H]2[C@@H]3CCC4=CC(=O)CC[C@]4(C)[C@H]3CC[C@]12C		0.05303 ± 6.1e-05 nM	0.06186 ± 7.6e-05 nM	0.04951 ± 9.9e-05 nM	0.14037 ± 6.4e-05 nM	0.02558 nM	0.04079 ± 7.6e-05 nM	0.02174 ± 8.7e-05 nM
